# From US20240018125A1, “CYCLIC ISOTHIOUREA DERIVATIVES AS CXCR4 MODULATORS” (ERMIUM THERAPEUTICS, priority 2020, published 2024)
# Where a name gives a salt, the structure may show the parent alone.
# Columns and labels:
# [1] = molecular target: T1, Recombinant CXCR4 receptor (Homo sapiens, UniProt P61073); assay: G.Validation fluorescence assay of CXCR4 receptor conformational changes in lipidic micelles SB2L4 and SB3L1; format: biochemical; settings: ligand 150 μM over basal state, 5 μM labelled CXCR4, 40 min
# T1 construct: host or cells: HEK-293 T cells
# Description: G.Validation® assay is […] biotech proprietary fluorescence based assay that assesses conformational changes of a receptor upon activation/inactivation. Recombinant CXCR4 receptor is produced and purified from HEK-293 T cells using […] proprietary mixes. Receptor is then reconstituted in detergent buffers containing lipids mimicking the lipidic composition of dendritic cells (DC) and macrophages (SB2L4 and SB3L1). Thereafter, the receptor is labelled with a non-modifying probe allowing the detection of the activation state and conformational change of the receptor upon addition of a ligand. Indeed, the probe emission spectra maximum wavelength (Amax) shifts according to activation/inactivation of the receptor. Thus, kinetic of activation/inactivation of the receptor can be followed by monitoring Amax shift after addition of a ligand over time. Emission spectra were registered for 40 minutes after addition of each ligand. […] Activation/inactivation kinetics were also followed using an exemplary compound of formula (I), i.e.
# [2] = test system: peripheral blood mononuclear cells (PBMCs) from healthy donors; assay: IFN production by R848-activated PBMCs, quantified with twINNE luciferase reporter cell line; format: cell-based, human; settings: Homo sapiens, PBMC; read-out: IC50 of anti-inflammatory activity (IFN production by activated PBMCs)
# Outline: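 Functional IFN was quantified by luciferase output from the twINNE ISRE-reporter line after 24 h on conditioned supernatants. Those supernatants came from human PBMCs (4.10^6/mL) pre-treated with compound and then stimulated for 24 h with 5 μg/mL resiquimod. IC50s were fitted by nonlinear variable-slope regression.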
# T1 sequence (P61073 whole entry): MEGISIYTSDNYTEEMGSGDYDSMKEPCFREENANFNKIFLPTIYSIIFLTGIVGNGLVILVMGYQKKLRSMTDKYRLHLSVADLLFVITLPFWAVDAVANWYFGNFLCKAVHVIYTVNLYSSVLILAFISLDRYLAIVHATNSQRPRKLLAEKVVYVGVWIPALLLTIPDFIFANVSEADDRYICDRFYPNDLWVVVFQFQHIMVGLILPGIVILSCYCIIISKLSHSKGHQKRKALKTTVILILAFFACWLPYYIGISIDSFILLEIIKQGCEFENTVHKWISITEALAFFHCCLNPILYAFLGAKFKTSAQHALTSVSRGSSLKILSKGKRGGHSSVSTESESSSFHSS
structure (smiles),measurement,setting,value
"Clc1ccc2c(c1)CN=C(SCCCCN1CCCC1)N2 [Example 60, 6-chloro-2-((4-(pyrrolidin-1-yl)butyl)thio)-1,4-dihydroquinazoline dihydrochloride]","CXCR4 structural activation/inactivation, Amax shift in fluorescence",[1],blue shift
same,IC50,[2],≤ 10 µM
